In article PMC9718554, “Discovery of a fragment hit compound targeting D-Ala:D-Ala ligase of bacterial peptidoglycan biosynthesis” (Journal of Enzyme Inhibition and Medicinal Chemistry, 2022):
Where two headings read alike, the source gives them in different places.

Key:
[1] = Solubility at tested concentrations in the fragment library screening; assay type: physicochemical
Source text: (§1) Supplement IENZ_A_2149745_SM2502.zip/DDlB_CDR05_SI_20221103.xlsx, sheet "Fragment library screening" | column: Solubility at tested concentrations

[2] = molecular target: T1, E. coli DdlB enzyme (D-alanine:D-alanine ligase) (Escherichia coli, UniProt P07862); assay: biochemical; details: read-out: DdlB RA; for remaining activity at 1800 µM: tested concentration 1.8 mM; for remaining activity at 2000 µM: tested concentration 2.0 mM; for remaining activity at 2200 µM: tested concentration 2.2 mM; for remaining activity at 1700 µM: tested concentration 1.7 mM; for remaining activity at 1900 µM: tested concentration 1.9 mM; for remaining activity at 2300 µM: tested concentration 2.3 mM; for remaining activity at 2100 µM: tested concentration 2.1 mM; for remaining activity at 2400 µM: tested concentration 2.4 mM
T1 construct: made in house; host or cells: E. coli

[3] = Solubility at tested concentrations (fragment library screening); assay type: physicochemical
Source text: as §1

[4] = at the Tested concentration [mM]

SMILES: Cc1cc(C)c2ccc(/C=N/O)nc2c1O [Compound 0422-0035]
- Solubility at tested concentrations [1, 4]: not soluble

SMILES: O=C1CSC(c2ccccc2)N1CCc1ccccc1 (stereo not drawn) [Compound 1410-0151]
- remaining activity at 1800 µM [2]: 134%
- Solubility at tested concentrations ([1]; tested concentration 1.8 mM): not soluble

SMILES: O=C1CSC(c2ccccc2)N1c1ccccc1 (stereo not drawn) [Compound 2339-2195]
- remaining activity at 2000 µM [2]: 103%
- Solubility at tested concentrations ([1]; tested concentration 2.0 mM): not soluble

SMILES: Cc1cccc2c(O)c(C(=O)O)cnc12 [Compound 4491-1619]
- Solubility at tested concentrations [1, 4]: not soluble

SMILES: O=[N+]([O-])c1cc(Cl)c(O)c2ncccc12 [Compound 8017-0599]
- remaining activity at 2200 µM ([2]; residual activity): 55%
- Solubility at tested concentrations ([3]; tested concentration 2.2 mM): not soluble

SMILES: COc1cccc2c1ncc1c(=O)n3cccc(O)c3nc12 [Compound 8018-0164]
- remaining activity at 1700 µM [2]: 72%
- Solubility at tested concentrations ([3]; tested concentration 1.7 mM): not soluble

SMILES: COc1ccc(-c2ncc(C(=O)O)c(=O)[nH]2)cc1OC [Compound 8020-2710]
- remaining activity at 1800 µM ([2]; residual activity): 91%
- Solubility at tested concentrations ([3]; tested concentration 1.8 mM): not soluble

SMILES: COc1ccc(Cc2ccc(F)cc2)cc1B(O)O [Compound 8020-3675]
- remaining activity at 1900 µM [2]: 52%
- Solubility at tested concentrations ([1]; tested concentration 1.9 mM): not soluble

SMILES: CCc1c(C)[nH]c(=O)c(C(=O)O)c1C#N [Compound 8020-6317]
- Solubility at tested concentrations [1, 4]: not soluble

SMILES: N#Cc1c2c([nH]c(=O)c1C(=O)O)CCCC2 [Compound 8020-6318]
- remaining activity at 2300 µM ([2]; residual activity): 93%
- Solubility at tested concentrations ([3]; tested concentration 2.3 mM): not soluble

SMILES: Cc1cccc(CNC(=O)c2ccc3cccc(O)c3n2)c1 [Compound C066-5543]
- remaining activity at 1700 µM ([2]; residual activity): 94%
- Solubility at tested concentrations ([3]; tested concentration 1.7 mM): not soluble

SMILES: O=C(O)c1nccnc1C(=O)Nc1cccc(Cl)c1 [Compound C612-0847]
- remaining activity at 1800 µM ([2]; residual activity): 52%
- Solubility at tested concentrations ([3]; tested concentration 1.8 mM): not soluble

SMILES: O=C(O)c1nccnc1C(=O)Nc1ccc([N+](=O)[O-])cc1 [Compound C612-1047]
- remaining activity at 1700 µM [2]: 38%
- Solubility at tested concentrations ([1]; tested concentration 1.7 mM): not soluble

SMILES: CCOc1ccc2c(c1)cc(C(=O)NC)n2C [Compound D291-1849]
- remaining activity at 2600 µM ([2]; tested concentration 2.6 mM): 95%
- Solubility at tested concentrations ([3]; tested concentration 2.6 mM): not soluble

SMILES: O=S(=O)(c1c[nH]cn1)N1CCCC1c1cccc(F)c1 (stereo not drawn) [Compound D399-0575]
- Solubility at tested concentrations [1, 4]: not soluble

SMILES: CC1CCN(S(=O)(=O)c2cnc(O)[nH]c2=O)CC1 [Compound D668-0109]
- remaining activity at 1800 µM ([2]; residual activity): 97%
- Solubility at tested concentrations ([3]; tested concentration 1.8 mM): not soluble

SMILES: COc1ccc(-c2ccc(C(=O)O)c(=O)[nH]2)cc1 [Compound D724-1039]
- remaining activity at 2000 µM ([2]; residual activity): 76%
- Solubility at tested concentrations ([3]; tested concentration 2.0 mM): not soluble

SMILES: O=C(O)c1ccc(-c2ccccc2)nc1O [Compound D724-1054]
- Solubility at tested concentrations [1, 4]: not soluble

SMILES: CC1=C(c2cccc(Cl)c2)S(=O)(=O)N=C1NC(C)C [Compound E013-2266]
- Solubility at tested concentrations [1, 4]: not soluble

SMILES: COCCNc1c(-c2ccc(C)cc2)c(=O)c1=O [Compound E470-0131]
- remaining activity at 2000 µM [2]: 78%
- Solubility at tested concentrations ([3]; tested concentration 2.0 mM): not soluble

SMILES: Cc1ccc(-c2c(N(C)c3ccc(C)cc3)c(=O)c2=O)cc1 [Compound E470-0191]
- remaining activity at 1700 µM [2]: 73%
- Solubility at tested concentrations ([1]; tested concentration 1.7 mM): not soluble

SMILES: CC1CCN(c2c(-c3ccccc3)c(=O)c2=O)CC1 [Compound E470-0346]
- remaining activity at 2000 µM [2]: 98%
- Solubility at tested concentrations ([1]; tested concentration 2.0 mM): not soluble

SMILES: O=c1c(NCC2CCCO2)c(-c2ccccc2)c1=O (stereo not drawn) [Compound E470-0384]
- remaining activity at 1900 µM [2]: 81%
- Solubility at tested concentrations ([1]; tested concentration 1.9 mM): not soluble

SMILES: CCC(C)(C)Nc1c(-c2ccccc2)c(=O)c1=O [Compound E470-0411]
- remaining activity at 2100 µM [2]: 48%
- Solubility at tested concentrations ([3]; tested concentration 2.1 mM): not soluble

SMILES: CC1Cc2ccccc2N1c1c(-c2ccccc2)c(=O)c1=O (stereo not drawn) [Compound E470-0446]
- remaining activity at 1700 µM [2]: 2.16%
- Solubility at tested concentrations ([1]; tested concentration 1.7 mM): not soluble

SMILES: O=c1c(NCc2ccco2)c(-c2ccccc2)c1=O [Compound E470-0461]
- remaining activity at 2000 µM [2]: 137%
- Solubility at tested concentrations ([1]; tested concentration 2.0 mM): not soluble

SMILES: Cc1cccc(Nc2c(-c3ccccc3)c(=O)c2=O)c1 [Compound E470-0476]
- remaining activity at 1900 µM [2]: 43%
- Solubility at tested concentrations ([1]; tested concentration 1.9 mM): not soluble

SMILES: O=c1c(NCCN2CCCCCC2)c(-c2ccccc2)c1=O [Compound E470-0490]
- remaining activity at 1700 µM [2]: 88%
- Solubility at tested concentrations ([1]; tested concentration 1.7 mM): not soluble

SMILES: CCCNc1c(-c2ccc(C(C)C)cc2)c(=O)c1=O [Compound E511-0830]
- remaining activity at 1900 µM [2]: 101%
- Solubility at tested concentrations ([1]; tested concentration 1.9 mM): not soluble

SMILES: Cc1cc2nc(COC(=O)c3ccccc3)cc(=O)n2o1 [Compound G265-0746]
- remaining activity at 1800 µM [2]: -1%
- Solubility at tested concentrations ([1]; tested concentration 1.8 mM): not soluble

SMILES: COc1ccccc1NC(=O)NC1COc2ccccc2C1 (stereo not drawn) [Compound G765-0207]
- Solubility at tested concentrations [1, 4]: not soluble

SMILES: O=C(NC1CCCCC1)c1ccc2cccc(O)c2n1 [Compound G900-0104]
- remaining activity at 1800 µM ([2]; residual activity): 80%
- Solubility at tested concentrations ([3]; tested concentration 1.8 mM): not soluble

SMILES: CCc1cccc(NC(=O)c2ccc3cccc(O)c3n2)c1 [Compound G900-0169]
- remaining activity at 1700 µM [2]: 69%
- Solubility at tested concentrations ([3]; tested concentration 1.7 mM): not soluble

SMILES: Cc1cc(C)cc(NC(=O)c2ccc3cccc(O)c3n2)c1 [Compound G900-0230]
- remaining activity at 1700 µM [2]: 92%
- Solubility at tested concentrations ([3]; tested concentration 1.7 mM): not soluble

SMILES: Cc1cc(C2CCCN2Cc2ccccc2O)on1 (stereo not drawn) [Compound J006-2498]
- remaining activity at 2300 µM [2]: 90%
- Solubility at tested concentrations ([3]; tested concentration 2.3 mM): not soluble

SMILES: O=C(Cc1c[nH]c2ncccc12)NCC1CCCCC1 [Compound M508-0609]
- remaining activity at 1800 µM ([2]; residual activity): 92%
- Solubility at tested concentrations ([3]; tested concentration 1.8 mM): not soluble

SMILES: O=C(O)c1cc(-c2ccc3ccccc3c2)[nH]n1 [Compound R052-2028]
- remaining activity at 2100 µM [2]: 50%
- Solubility at tested concentrations ([1]; tested concentration 2.1 mM): not soluble

SMILES: Oc1cc(-c2ccccc2)cc2c1nnc1ncnn12 [Compound Y021-2954]
- remaining activity at 1900 µM ([2]; residual activity): 79%
- Solubility at tested concentrations ([3]; tested concentration 1.9 mM): not soluble

SMILES: Oc1cccc2c1nnc1nc(-c3cccnc3)nn12 [Compound Y021-2955]
- remaining activity at 1900 µM ([2]; residual activity): 45%
- Solubility at tested concentrations ([3]; tested concentration 1.9 mM): not soluble

SMILES: Cc1cc(C)c(S(=O)(=O)N(C)C2CCCCC2)c(C)c1 [Compound Y030-0169]
- Solubility at tested concentrations [1, 4]: not soluble

SMILES: O=C(O)c1cnc2ccc(F)cc2c1O [Compound Y042-3098]
- remaining activity at 2400 µM [2]: 53%
- Solubility at tested concentrations ([1]; tested concentration 2.4 mM): not soluble

SMILES: O=C(O)c1cnc2cc(Cl)ccc2c1O [Compound Y042-3116]
- remaining activity at 2200 µM [2]: 44%
- Solubility at tested concentrations ([1]; tested concentration 2.2 mM): not soluble

SMILES: O=C(O)c1cnc2c(OC(F)(F)F)cccc2c1O [Compound Y042-3118]
- remaining activity at 1800 µM ([2]; residual activity): 88%
- Solubility at tested concentrations ([3]; tested concentration 1.8 mM): not soluble

SMILES: CCCCc1ccc2ncc(C(=O)O)c(O)c2c1 [Compound Y044-2907]
- remaining activity at 2000 µM [2]: 85%
- Solubility at tested concentrations ([1]; tested concentration 2.0 mM): not soluble

SMILES: CC(C)c1ccc(C(=O)Nc2nnc[nH]2)cc1 [Compound Y200-5752]
- remaining activity at 2200 µM ([2]; residual activity): 52%
- Solubility at tested concentrations ([3]; tested concentration 2.2 mM): not soluble

SMILES: NS(=O)(=O)c1ccc(NC(=O)C2CCCC2)cc1 [Compound Y205-5953]
- remaining activity at 1900 µM [2]: 62%
- Solubility at tested concentrations ([1]; tested concentration 1.9 mM): not soluble

SMILES: Cc1cccc(CC(=O)Nc2cccc(C(=O)O)c2)c1 [Compound Y206-6127]
- remaining activity at 1900 µM [2]: 58%
- Solubility at tested concentrations ([1]; tested concentration 1.9 mM): not soluble

SMILES: Cc1ccc(CS(=O)(=O)N2CCCCC2)cc1 [Compound Y300-3037]
- remaining activity at 2400 µM [2]: 88%
- Solubility at tested concentrations ([3]; tested concentration 2.4 mM): not soluble

SMILES: c1ccc(-c2nnc(CC34CC5CC(CC(C5)C3)C4)o2)nc1 [Compound Y502-6922]
- Solubility at tested concentrations [1, 4]: not soluble

SMILES: O=C(O)c1cnn2c(-c3ccco3)ccnc12 [Compound Y504-8728]
- remaining activity at 2200 µM [2]: 56%
- Solubility at tested concentrations ([1]; tested concentration 2.2 mM): not soluble

SMILES: Cc1cc(N)nn1CC(=O)O [Compound Y504-8763]
- remaining activity at 3200 µM ([2]; tested concentration 3.2 mM): 57%
- Solubility at tested concentrations ([3]; tested concentration 3.2 mM): not soluble
